# Key:
# [1] = Fluorescence imaging of doxorubicin distribution in rabbit livers after millirod implantation; conditions: in vivo
# Procedure: In accordance with the present invention, we developed a fluorescence imaging method to analyze doxorubicin distribution in rabbit liver tissues. First, we determined the calibration curve to correlate fluorescence intensity with doxorubicin concentration in liver tissues. Second, we estimated the sensitivity limit (0.6 μg/g of liver tissue) for doxorubicin detection by this method. This value is well below the cytotoxic concentrations of doxorubicin to VX-2 cells (˜6.4 μg/g). (Ridge, J. A., Collin, C., Bading, J. R., Hancock, C., Conti, P. S., Daly, J. M. and Raaf, J. H. (1988) Cancer Res 48(16), 4584-7. Third, we used this method to quantify the dynamics of drug distribution in ablated and non-ablated rabbit livers over time. The detailed experimental procedure of the fluorescence imaging method is described below.
# FIG. 14 compares the 2D doxorubicin distribution profiles between non-ablated and thermoablated liver tissues. In this set of experiments, a monolithic millirod with burst release kinetics (millirod (a) in FIG. 2) was implanted in either non-ablated or thermoablated livers. […] White dashed lines in the figures represent the ablated-normal tissue boundary, which was obtained by comparing the fluorescence image with an optical image of histology slides where this boundary is well-defined (see next section).
# VX-2 cells = conditions: Ridge et al. 1988; cited from earlier work
# [2] = Structural integrity of doxorubicin after millirod fabrication (NMR); assay type: physicochemical; conditions: compression-heat molding, 90° C., 2 hours
# Procedure: These devices are prepared as a monolithic system using a compression-heat-molding procedure that has been developed. (Qian, F., Szymanski, A. and Gao, J. (2001) J. Biomed. Mater. Res. 55, 512-522.) Briefly, doxorubicin solution (2 mg/mL, also containing 0.9% NaCl) from Bedford Laboratories is first dialyzed in distilled water to remove the NaCl. […] The well-mixed particles are placed in a Teflon tube and molded into a polymer millirod at a compression pressure of 4.6×10^6 Pa and a fabrication temperature at 90° C. for 2 hours.
# Determination of the structural integrity of released doxorubicin. Released doxorubicin in PBS is desalted by gel filtration column chromatography (G-10 column, Pharmacia). Samples are lyophilized and characterized by ^1H and ^13C nuclear magnetic resonance (NMR) and mass spectrometry to examine their structural integrity. In NMR analysis, lyophilized agents are dissolved in deuterated methanol and spectrum will be obtained on a 300 MHz ^1H NMR instrument (Bruker). The chemical shifts of the released agents are compared to the pure compound to detect possible structural decomposition.
smiles,measurement,setting,value
COc1cccc2c1C(=O)c1c(O)c3c(c(O)c1C2=O)C[C@@](O)(C(=O)CO)C[C@@H]3O[C@H]1C[C@H](N)[C@H](O)[C@H](C)O1 [doxorubicin],concentration at 24 h,[1],50000 ng/g
same,cytotoxic concentration of doxorubicin,VX-2 cells,~6.4 µg/g
same,structure of doxorubicin after fabrication,[2],remained intact
